For this assay, the target named is T1, mGAT1 (Mus musculus, UniProt P31648).
T1 construct: expressed in transfected cells
Put plainly: [3H]GABA uptake at mGAT1 stably expressed in HEK-293 cells. In kind it is cell-based. The procedure:
The HEK-293 and Flp-In CHO cell lines stably expressing mouse (m) and human (h) GATs, respectively, have been described previously and were cultured accordingly. The tsA201 cell line was used for transient expression while the MDCK II cell line express BGT1 endogenously. Both cell lines were cultured as described. tsA201 cells were transfected with DNA constructs (8 μg per 10 cm dish if not otherwise mentioned) using 40 μL PolyFect transfection reagent according to the manufacturer’s protocol (Qiagen, Venlo, Netherlands). The DNA constructs encoding hBGT1, hGAT1-3 [36], the mutated constructs hBGT1 Q299 and hGAT3 L314Q described previously, and hBGT Y453A were synthesized and sequence validated by Genscript (NJ, USA).
The [^3H]GABA competition uptake assay was performed as previously described. A minor change, however, was introduced for uptake in MDCK II cells, in which 100 nM [^3H]GABA was used for a 15 min incubation period at 37 °C instead of 30 nM [^3H]GABA and 3 min incubation. Studies related to the inhibition curves with GABA and BPDBA at hBGT1 were obtained both with and without the presence of 10 μM ATP during the [^3H]GABA uptake assay.
The [^3H]GABA uptake data was normalized to the percentage of total uptake in the individual experiments in the presence of the lowest compound concentration or no compound present. Data presented is the pooled data of at least three independent experiments with three technical replicates. Concentration–response curves (CRCs) were fitted with GraphPad Prism (version 8.2.1, Yosemite, GraphPad Software, San Diego, CA, USA) by non-linear regression to the sigmoidal concentration response model: Y=Bottom+(Top-Bottom)/1+10^LogIC50-X∗nH where Top is the Top plateau, Bottom is the Bottom plateau, X is the logarithm of the concentration of the compound, LogIC50 is the concentration giving a response halfway between Top and Bottom,and nH is the Hill slope.
The best fit for CRCs obtained with the [^3H]GABA uptake assay was identified by the extra-sum-of-squares F test (for convenience referred to as F test).

“Also recorded” adds a separate entry of the source. Like-named read-outs stand apart in the source and are kept apart here.

For the compound `Cc1ccsc1C(=CCCN(C)[C@H]1CCCC[C@H]1C(=O)O)c1sccc1C` [SBV2-114, (1R,2S)-2-((4,4-bis(3-methylthiophen-2-yl)but-3-en-yl)(methyl)amino)cyclohexanecarboxylic acid], the IC50 (ambiguous fit, N=1 experiment, read-out: IC50) was more than 1000 µM; the IC50 (biphasic fit, N=1 experiment, read-out: pIC50, high affinity component (converted)) is 0.417 µM; the IC50 (monophasic fit, N=1 experiment, read-out: IC50) was more than 1000 µM; the IC50 (read-out: IC50, low affinity component, biphasic fit, N=1 experiment) came to 755 µM. The Frac (biphasic fit, N=1 experiment) is 0.14. Further, the Fit entry (preferred model per experiment, F test) is “Biphasic; also recorded: Monophasic; also recorded: Ambiguous”.

These data come from PMC7297817, “Pharmacological Characterization of a Betaine/GABA Transporter 1 (BGT1) Inhibitor Displaying an Unusual Biphasic Inhibition Profile and Anti-seizure Effects” (Neurochemical Research, 2020).
